Tests used:
[1] = test system: normal NK cells expanded with K562-aAPC; test: percent inhibition of viability; higher = more inhibition; conditions: 72 h, IL-2 2.5 ng/mL
Procedure: (§1)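 Drug sensitivity and resistance testing on K562-aAPC-expanded normal NK cells: 5 concentrations (10-fold steps over a 10,000-fold range), 72 h at 37 °C, viability by CellTiter-Glo normalised to DMSO and benzethonium chloride controls; DSS from the fitted curve.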

[2] = test system: normal primary NK cells, pool 1 (3 donors), resting (IL-2 0 ng/mL); test: drug sensitivity score (DSS) (DSS units); higher = more sensitive; extreme values may be limits of the assay; conditions: 72 h
[3] = test system: DERL-7 (IL-2 2.5 ng/mL); test: as above; conditions: 72 h
[4] = test system: normal primary NK cells, pool 3 (3 donors) (IL-2 2.5 ng/mL); test: as above; conditions: 72 h
[5] = test system: KAI3 (IL-2 2.5 ng/mL); test: as above; conditions: 72 h
[6] = test system: YT (IL-2 2.5 ng/mL); test: as above; conditions: 72 h
[7] = test system: KHYG-1 (IL-2 2.5 ng/mL); test: as above; conditions: 72 h
[8] = test system: NK-92 (IL-2 2.5 ng/mL); test: as above; conditions: 72 h
[9] = test system: SNK-6 (IL-2 2.5 ng/mL); test: as above; conditions: 72 h
[10] = test system: normal primary NK cells, pool 2 (3 donors) (IL-2 2.5 ng/mL); test: as above; conditions: 72 h
[11] = test system: NKL (IL-2 2.5 ng/mL); test: as above; conditions: 72 h
[12] = test system: NK-YS (IL-2 2.5 ng/mL); test: as above; conditions: 72 h
[13] = test system: IMC-1 (IL-2 20 ng/mL); test: as above; conditions: 72 h
[14] = test system: normal primary NK cells, pool 1 (3 donors) (IL-2 2.5 ng/mL); test: as above; conditions: 72 h
[15] = test system: normal primary NK cells, pool 1 (3 donors), resting (IL-2 0 ng/mL); test: percent inhibition of viability; higher = more inhibition; conditions: 72 h
[16] = test system: DERL-7 (IL-2 2.5 ng/mL); test: as above; conditions: 72 h
[17] = test system: normal primary NK cells, pool 3 (3 donors) (IL-2 2.5 ng/mL); test: as above; conditions: 72 h
[18] = test system: KAI3 (IL-2 2.5 ng/mL); test: as above; conditions: 72 h
[19] = test system: YT (IL-2 2.5 ng/mL); test: as above; conditions: 72 h
[20] = test system: KHYG-1 (IL-2 2.5 ng/mL); test: as above; conditions: 72 h
[21] = test system: NK-92 (IL-2 2.5 ng/mL); test: as above; conditions: 72 h
[22] = test system: SNK-6 (IL-2 2.5 ng/mL); test: as above; conditions: 72 h
[23] = test system: normal primary NK cells, pool 2 (3 donors) (IL-2 2.5 ng/mL); test: as above; conditions: 72 h
[24] = test system: NKL (IL-2 2.5 ng/mL); test: as above; conditions: 72 h
[25] = test system: NK-YS (IL-2 2.5 ng/mL); test: as above; conditions: 72 h
[26] = test system: IMC-1 (IL-2 20 ng/mL); test: as above; conditions: 72 h
[27] = test system: normal primary NK cells, pool 1 (3 donors) (IL-2 2.5 ng/mL); test: as above; conditions: 72 h
[28] = test system: normal NK cells expanded with K562-aAPC; test: drug sensitivity score (DSS) (DSS units); higher = more sensitive; extreme values may be limits of the assay; conditions: 72 h; IL-2 2.5 ng/mL
Procedure: as §1

COc1cc(N2CCN(C)CC2)ccc1Nc1nccc(-c2cn(C)c3cnccc23)n1 [AZ191] (max concentration tested 10000 nM)
percent inhibition of viability [%]
Conditions | 1 nM | 10 nM | 100 nM | 1000 nM | 10000 nM
[1] | -2.34 | 0.52 | -4.12 | 6.6 | 100
[15] | 1.62 | -14.6 | -3.74 | -36.1 | 89
[16] | 7.49 | 2.85 | 4.6 | 22.2 | 100
[17] | -10.6 | -7.12 | 4.76 | -17.3 | 97.8
[18] | -2.82 | -0.25 | 1.51 | 7.76 | 96.3
[19] | 2.03 | 4.34 | 2.77 | 1.55 | 41.9
[20] | 0.79 | 2.96 | 3.04 | 14.1 | 84
[21] | 2.97 | 2.04 | -3.34 | -19.2 | 93.8
[22] | -18.5 | -11.7 | -15.3 | -7.38 | 92
[23] | -12.1 | -5.94 | -2.76 | -11.2 | 95.5
[24] | 0.2 | -6.29 | 1.16 | 9.93 | 100
[25] | -4.12 | 2.61 | 2.04 | 8.64 | 101
[26] | -5.47 | 3.31 | -0.27 | 2.63 | 101
[27] | 7.5 | -5.03 | -5.7 | -4.75 | 96.8

Conditions | drug sensitivity score
[2] | 3.59
[3] | 9.03
[4] | 4.48
[5] | 6.56
[6] | 2.31
[7] | 7.01
[8] | 4.21
[9] | 4.58
[10] | 4.59
[11] | 7.17
[12] | 6.95
[13] | 6.03
[14] | 5.01
[28] | 6.54

Nc1ncnc2c1c(COc1cccc(Cl)c1)nn2C1CCOCC1 (max concentration tested 10000 nM)
percent inhibition of viability [%]
Conditions | 1 nM | 10 nM | 100 nM | 1000 nM | 10000 nM
[1] | -1.33 | -1.38 | -0.63 | 3.72 | 15.8
[15] | -7.87 | -6 | -17.2 | 5.79 | 10.6
[16] | -1.45 | -6.37 | 0.64 | 4.1 | 23.4
[17] | -12.8 | -14.6 | -0.61 | 5.01 | 13
[18] | -4.22 | -5.6 | -4.5 | -2.39 | 10.8
[19] | 5.62 | 8.61 | 4.5 | 8.08 | 29.8
[20] | 3.82 | 3.26 | 2.76 | 9.04 | 2.95
[21] | 5.04 | -5.45 | 2.8 | 11.6 | 20.2
[22] | 11.9 | 13.8 | -0.97 | 16.6 | 15
[23] | -11.2 | -9.94 | -1.24 | -2.49 | 18.9
[24] | 2.65 | 1.05 | 6.33 | 7.05 | 28
[25] | -2.03 | -5.09 | -3.81 | -2.25 | 1.95
[26] | -0.63 | -0.09 | 1.3 | 2.67 | 5.66
[27] | -5.02 | -2.71 | -7 | -1.66 | 12.2

Conditions | drug sensitivity score
[2] | 0.06
[3] | 1.44
[4] | 0.39
[5] | 0
[6] | 2.23
[7] | 0
[8] | 1.45
[9] | 0
[10] | 0.39
[11] | 1.92
[12] | 0
[13] | 0
[14] | 0.03
[28] | 0.66

Nc1nc(NC2CC2)cc(-c2cccc(Cl)c2Cl)n1 [TH588] (max concentration tested 25000 nM)
percent inhibition of viability [%]
Conditions | 2.5 nM | 25 nM | 250 nM | 2500 nM | 25000 nM
[1] | -9.36 | -5.78 | -3.43 | 4.8 | 54.4
[15] | -2.99 | 16.5 | 4.87 | 14.2 | 27.3
[16] | -0.31 | 1.28 | 1.11 | 0.06 | 97.7
[17] | -2.82 | 4 | 7.93 | 2.77 | 13.5
[18] | 0.95 | -6.22 | 2.89 | 42 | 64.7
[19] | -5.04 | -2.09 | 4.62 | 56.5 | 101
[20] | -2.9 | -3.16 | 5.7 | 58.7 | 107
[21] | -1.92 | -6.94 | 2.79 | 72.5 | 101
[22] | 0.31 | -17.3 | 9.99 | 71.7 | 81.9
[23] | -12 | 6.63 | 10.1 | 10.4 | 25.7
[24] | -9.98 | -13.7 | 2.66 | 55.4 | 98.6
[25] | 1.83 | -0.35 | 11.3 | 66.7 | 80.4
[26] | -9.26 | 1.24 | 2.13 | 7.29 | 96.8
[27] | -0.99 | 16 | 3.84 | 5.63 | 25.9

Conditions | drug sensitivity score
[2] | 2.68
[3] | 5.47
[4] | 0.02
[5] | 8.66
[6] | 12.3
[7] | 12.6
[8] | 14.2
[9] | 14.5
[10] | 2.06
[11] | 12.1
[12] | 13.8
[13] | 6.5
[14] | 1.81
[28] | 3.67

CN1CCc2c(c3ccccc3n2Cc2ccc(C(=O)NO)cc2)C1 [Tubastatin A] (max concentration tested 10000 nM)
percent inhibition of viability [%]
Conditions | 1 nM | 10 nM | 100 nM | 1000 nM | 10000 nM
[1] | -5.45 | -1.84 | -1.29 | 9.86 | 53.5
[15] | 8.81 | 19.6 | 12 | 26.2 | 81.9
[16] | -3.55 | 1.06 | -2.9 | -2.52 | 60
[17] | -0.16 | 11.4 | -0.85 | -0.8 | 29.6
[18] | 2.16 | -0.84 | 7.18 | 38.8 | 90.5
[19] | -0.87 | -2.95 | -0.96 | 6.63 | 72.9
[20] | -2.63 | -7.38 | -2.24 | 5.2 | 68.8
[21] | -3.57 | -14.2 | -5.66 | 22.2 | 92.4
[22] | 8.54 | 0.91 | 4.89 | 18.5 | 57
[23] | -2.86 | 0.66 | 3.2 | 7.48 | 46.4
[24] | -6.98 | -8.33 | 6.76 | 35.4 | 74.1
[25] | -4.34 | -5.38 | -3.76 | 9.99 | 54.1
[26] | -3.32 | -4.63 | -0.4 | -1.55 | 84.5
[27] | 7.05 | 12.2 | 16.9 | 13 | 63.5

Conditions | drug sensitivity score
[2] | 7.58
[3] | 3.03
[4] | 1.21
[5] | 9.51
[6] | 5.09
[7] | 4.58
[8] | 8.57
[9] | 5.42
[10] | 3.66
[11] | 8.2
[12] | 4.55
[13] | 4.57
[14] | 5.39
[28] | 4.5

CC(O)(CS(=O)(=O)c1ccc(F)cc1)C(=O)Nc1ccc(C#N)c(C(F)(F)F)c1 (stereo not given) [Bicalutamide] (max concentration tested 10000 nM)
percent inhibition of viability [%]
Conditions | 1 nM | 10 nM | 100 nM | 1000 nM | 10000 nM
[1] | 5.68 | 3.24 | 1.15 | 11.5 | 13.4
[15] | 2.97 | -8.07 | -9.37 | -26.1 | -10.4
[16] | 1.65 | 7.46 | -4.98 | 5.71 | 5.22
[17] | 3.23 | -2.54 | 5.11 | -2.8 | -0.48
[18] | 14.6 | 10.8 | 21.5 | 20.8 | 43.6
[19] | 3.05 | 13.5 | 3.8 | 17.9 | 16.7
[20] | 3.99 | 22.1 | 3.98 | 27.4 | 19.9
[21] | 10.3 | 8.57 | 4.92 | 20.1 | 30.6
[22] | 9.4 | 13.4 | 4.02 | 9.59 | 26.6
[23] | -0.02 | -1.32 | -0.86 | -0.13 | 7.12
[24] | 0.19 | 16.2 | 5.15 | 40.3 | 35.9
[25] | 9.7 | 4 | 13.7 | 9.96 | 23.5
[26] | 3.29 | 5.96 | 8.36 | 9.75 | 42.3
[27] | -3.4 | -8.36 | -1.19 | -15.8 | 6.46

Conditions | drug sensitivity score
[2] | 0
[3] | 0
[4] | 0
[5] | 7.75
[6] | 1.84
[7] | 4.48
[8] | 3.61
[9] | 2.16
[10] | 0
[11] | 8.09
[12] | 2.2
[13] | 3.5
[14] | 0
[28] | 0.74

— the supplement of paper PMC5908809
